Results as given in patent publication US20260217767A1, “NOVEL A4B7 THIOETHER PEPTIDE DIMER ANTAGONISTS” (Protagonist Therapeutics, Inc., priority 2014, published 2026).
Where a SMILES comes first, the peptide text is derived from it.

Biological target: T1, RPMI 8866 cells (Homo sapiens, UniProt P13612+P26010)
T1 sequence (P13612 34-1032): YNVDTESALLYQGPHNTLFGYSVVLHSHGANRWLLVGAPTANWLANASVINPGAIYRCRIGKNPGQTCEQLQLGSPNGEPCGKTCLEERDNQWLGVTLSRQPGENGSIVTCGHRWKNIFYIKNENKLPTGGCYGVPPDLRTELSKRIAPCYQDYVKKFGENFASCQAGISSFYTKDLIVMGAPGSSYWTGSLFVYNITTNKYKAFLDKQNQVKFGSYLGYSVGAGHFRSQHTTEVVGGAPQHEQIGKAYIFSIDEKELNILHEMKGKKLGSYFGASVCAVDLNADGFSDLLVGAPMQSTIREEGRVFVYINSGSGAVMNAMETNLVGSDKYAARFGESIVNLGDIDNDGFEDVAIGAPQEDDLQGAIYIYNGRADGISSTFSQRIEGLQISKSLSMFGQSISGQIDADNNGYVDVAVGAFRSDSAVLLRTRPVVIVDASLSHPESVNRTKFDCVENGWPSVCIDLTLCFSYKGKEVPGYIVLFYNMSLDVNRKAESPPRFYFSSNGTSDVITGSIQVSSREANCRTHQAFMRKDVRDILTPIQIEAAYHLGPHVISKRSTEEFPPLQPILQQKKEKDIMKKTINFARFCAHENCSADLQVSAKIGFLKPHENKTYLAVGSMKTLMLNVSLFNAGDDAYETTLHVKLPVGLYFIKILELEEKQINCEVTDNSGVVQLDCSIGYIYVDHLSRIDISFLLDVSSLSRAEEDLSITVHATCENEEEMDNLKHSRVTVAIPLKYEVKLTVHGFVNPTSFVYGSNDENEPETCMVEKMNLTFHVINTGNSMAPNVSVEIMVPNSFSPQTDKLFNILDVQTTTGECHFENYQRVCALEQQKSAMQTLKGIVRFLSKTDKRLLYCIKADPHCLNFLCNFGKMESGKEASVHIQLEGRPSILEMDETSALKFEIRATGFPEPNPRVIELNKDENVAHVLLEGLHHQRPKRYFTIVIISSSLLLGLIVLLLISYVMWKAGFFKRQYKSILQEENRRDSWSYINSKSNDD
T1 sequence (P26010 20-798): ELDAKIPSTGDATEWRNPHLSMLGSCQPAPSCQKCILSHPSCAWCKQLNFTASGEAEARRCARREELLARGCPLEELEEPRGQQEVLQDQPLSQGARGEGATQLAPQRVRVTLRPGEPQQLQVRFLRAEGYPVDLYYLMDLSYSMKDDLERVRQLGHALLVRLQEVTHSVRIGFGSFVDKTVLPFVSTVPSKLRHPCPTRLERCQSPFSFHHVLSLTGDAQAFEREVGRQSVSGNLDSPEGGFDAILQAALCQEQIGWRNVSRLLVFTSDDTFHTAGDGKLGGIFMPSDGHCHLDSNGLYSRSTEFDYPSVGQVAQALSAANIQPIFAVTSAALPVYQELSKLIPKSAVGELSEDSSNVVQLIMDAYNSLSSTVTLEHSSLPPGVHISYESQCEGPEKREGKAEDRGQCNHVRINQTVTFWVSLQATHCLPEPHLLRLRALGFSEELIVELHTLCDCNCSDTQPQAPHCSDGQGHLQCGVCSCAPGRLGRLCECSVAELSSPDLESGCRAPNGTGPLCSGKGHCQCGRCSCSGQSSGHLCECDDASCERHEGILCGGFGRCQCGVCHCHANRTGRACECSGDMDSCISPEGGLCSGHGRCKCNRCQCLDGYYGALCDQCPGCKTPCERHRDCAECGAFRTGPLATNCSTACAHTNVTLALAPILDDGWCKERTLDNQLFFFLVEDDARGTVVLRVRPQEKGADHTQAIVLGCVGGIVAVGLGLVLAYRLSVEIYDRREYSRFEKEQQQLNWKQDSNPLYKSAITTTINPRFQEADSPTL
Assay: α4β7-MAdCAM Cell Adhesion Assay
Type: cell-based
Details: thioether monomer peptides, Table 6; read-out: Cell-Adhesion A4B7
Experimental: α4β7-MAdCAM Cell Adhesion Assay
RPMI 8866 cells (Sigma #95041316) were cultured in RPMI 1640 HEPES medium (Invitrogen #22400-089) supplemented with 10% serum (Fetal Bovine Serum, Invitrogen #16140-071), 1 mM sodium pyruvate (Invitrogen #11360-070), 2 mM L-glutamine (Invitrogen #25030-081) and Penicillin-Streptomycin (Invitrogen #15140-122) at 100 units of penicillin and 100 μg of streptomycin per ml. The cells were washed two times in DMEM medium (ATCC #30-2002) supplemented with 0.1% BSA, 10 mM HEPES pH 7 and 1 mM MnCl2. The cells were re-suspended in supplemented DMEM medium at a density of 4×10^6 cells/ml.
A Nunc MaxiSorp plate was coated with rh MAdCAM-1/Fc Chimera (R&D #6065-MC) at 200 ng per well in 50 ul per well in 1×PBS and incubated at 4° C. overnight. The solution was then removed by shaking, blocked with 250 ul per well PBS containing 1% BSA, and incubated at 37° C. for 1 hr. The solution was removed by shaking. Peptides were diluted by serial dilution in a final volume of 50 ul per well (2× concentration). To each well, 50 ul of cells (200,000 cells) were added and the plate was incubated at 37° C., 5% CO2 for 30-45 min to allow cell adhesion. The wells were washed manually three times (100 ul per wash) with supplemented DMEM. After the final wash, 100 μl/well of supplemented DMEM and 10 ul/well of MTT reagent (ATTC cat #30-1010K) were added. The plate was incubated at 37° C., 5% CO2 for 2-3 hrs until a purple precipitate is visible. 100 ul of Detergent Reagent (ATTC cat #30-1010K) was added to each well. The plate was covered from the light, wrapped in Parafilm to prevent evaporation, and left overnight at room temperature in the dark. The plate was shaken for 5 min and the absorbance at 570 nm is measured. To calculate the dose response, the absorbance value of control wells not containing cells was subtracted from each test well.

Compound	IC50 [µM]
CC(C)C[C@@H]1NC(=O)[C@H]([C@@H](C)O)NC(=O)[C@H](CC(=O)O)NC(=O)[C@H](CO)NC(=O)[C@H](CCCNC(=N)N)N(C)C(=O)c2ccccc2CSC[C@@H](C(=O)N2Cc3ccccc3C[C@H]2C(=O)N[C@H](CCCCN)C(=O)O)NC1=O [compound 118] (HELM PEPTIDE1{[meR].S.D.T.L.C.[Tic].[dK]}|CHEM1{[O=C(c1ccccc1C[*:2])[*:1]]}$PEPTIDE1,CHEM1,1:R1-1:R1|PEPTIDE1,CHEM1,6:R3-1:R2$$$V2.0)	0.1 to 1
CC(C)C[C@@H]1NC(=O)[C@H]([C@@H](C)O)NC(=O)[C@H](CC(=O)O)NC(=O)[C@H](CO)NC(=O)[C@H](CCCNC(=N)N)N(C)C(=O)c2ccc(cc2)CSC(C)(C)[C@@H](C(=O)N[C@@H](Cc2c[nH]c3ccccc23)C(=O)N[C@H](CCC(=O)O)C(=O)N[C@H](CCCCN)C(N)=O)NC1=O [compound 112] (HELM PEPTIDE1{[meR].S.D.T.L.[Pen].W.[dE].[dK].[am]}|CHEM1{[O=C(c1ccc(C[*:2])cc1)[*:1]]}$PEPTIDE1,CHEM1,1:R1-1:R1|PEPTIDE1,CHEM1,6:R3-1:R2$$$V2.0)	> 1

Same assay, conditions: thioether peptide dimers, Table 7; read-out: Cell-Adhesion A4B7

Compound	IC50 [µM]
CC(C)C[C@@H]1NC(=O)[C@H]([C@@H](C)O)NC(=O)[C@H](CC(=O)O)NC(=O)[C@H](CO)NC(=O)[C@H](CCCNC(=N)N)N(C)C(=O)c2ccccc2CSC(C)(C)[C@@H](C(=O)N[C@@H](Cc2c[nH]c3ccccc23)C(=O)N[C@H](CCC(=O)O)C(=O)N[C@H](CCCCN)C(N)=O)NC1=O [compound 212] (HELM PEPTIDE1{[meR].S.D.T.L.[Pen].W.[dE].[dK].[am]}|CHEM1{[O=C(c1ccccc1C[*:2])[*:1]]}$PEPTIDE1,CHEM1,1:R1-1:R1|PEPTIDE1,CHEM1,6:R3-1:R2$$$V2.0)	0.025 to 0.1
CC(C)C[C@@H]1NC(=O)[C@H]([C@@H](C)O)NC(=O)[C@H](CC(=O)O)NC(=O)[C@H](CO)NC(=O)[C@H](CCCNC(=N)N)N(C)C(=O)c2ccccc2CSC[C@@H](C(=O)N[C@H](Cc2ccccc2)C(=O)N[C@H](CCC(=O)O)C(=O)N[C@H](CCCCN)C(N)=O)NC1=O [compound 187] (HELM PEPTIDE1{[meR].S.D.T.L.C.[dF].[dE].[dK].[am]}|CHEM1{[O=C(c1ccccc1C[*:2])[*:1]]}$PEPTIDE1,CHEM1,1:R1-1:R1|PEPTIDE1,CHEM1,6:R3-1:R2$$$V2.0)	0.025 to 0.1
CC(C)C[C@@H]1NC(=O)[C@H]([C@@H](C)O)NC(=O)[C@H](CC(=O)O)NC(=O)[C@H](CO)NC(=O)[C@H](CCCNC(=N)N)N(C)C(=O)C(C)SC(C)(C)[C@@H](C(=O)N[C@@H](Cc2c[nH]c3ccccc23)C(=O)N[C@H](CCCCN)C(N)=O)NC1=O (single isomer, unassigned) [compound 148]	> 1
CC(C)C[C@@H]1NC(=O)[C@H]([C@@H](C)O)NC(=O)[C@H](CC(=O)O)NC(=O)[C@H](CO)NC(=O)[C@H](CCCNC(=N)N)N(C)C(=O)c2ccccc2CSC[C@@H](C(=O)N[C@H](Cc2ccccc2)C(=O)N[C@@H](CCC(=O)O)C(=O)N[C@H](CCCCN)C(N)=O)NC1=O [compound 186] (HELM PEPTIDE1{[meR].S.D.T.L.C.[dF].E.[dK].[am]}|CHEM1{[O=C(c1ccccc1C[*:2])[*:1]]}$PEPTIDE1,CHEM1,1:R1-1:R1|PEPTIDE1,CHEM1,6:R3-1:R2$$$V2.0)	0.025 to 0.1
CC(C)C[C@@H]1NC(=O)[C@H]([C@@H](C)O)NC(=O)[C@H](CC(=O)O)NC(=O)[C@H](CO)NC(=O)[C@H](CCCNC(=N)N)N(C)C(=O)c2ccccc2CSC(C)(C)[C@@H](C(=O)N[C@@H](Cc2ccccc2)C(=O)N[C@@H](Cc2ccc(-c3ccccc3)cc2)C(=O)N[C@H](CCCCN)C(N)=O)NC1=O [compound 203] (HELM PEPTIDE1{[meR].S.D.T.L.[Pen].F.[O=C([C@H](Cc1ccc(-c2ccccc2)cc1)N[*:1])[*:2]].[dK].[am]}|CHEM1{[O=C(c1ccccc1C[*:2])[*:1]]}$PEPTIDE1,CHEM1,1:R1-1:R1|PEPTIDE1,CHEM1,6:R3-1:R2$$$V2.0)	0.1 to 1
CC(C)C[C@@H]1NC(=O)[C@H]([C@@H](C)O)NC(=O)[C@H](CC(=O)O)NC(=O)[C@H](CO)NC(=O)[C@H](CCCNC(=N)N)N(C)C(=O)c2ccccc2CSC(C)(C)[C@@H](C(=O)N[C@@H](Cc2c[nH]c3ccccc23)C(=O)N[C@H](CCC(=O)O)C(=O)N[C@@H](CC(C)C)C(=O)N[C@H](CCCCN)C(N)=O)NC1=O [compound 190] (HELM PEPTIDE1{[meR].S.D.T.L.[Pen].W.[dE].L.[dK].[am]}|CHEM1{[O=C(c1ccccc1C[*:2])[*:1]]}$PEPTIDE1,CHEM1,1:R1-1:R1|PEPTIDE1,CHEM1,6:R3-1:R2$$$V2.0)	< 0.025
CC(C)C[C@@H]1NC(=O)[C@H]([C@@H](C)O)NC(=O)[C@H](CC(=O)O)NC(=O)[C@H](CO)NC(=O)[C@H](CCCNC(=N)N)N(C)C(=O)c2ccccc2CSC(C)(C)[C@@H](C(=O)N[C@@H](Cc2c[nH]c3ccccc23)C(=O)N[C@H](CCC(=O)O)C(=O)N[C@@H](Cc2ccccc2)C(=O)N[C@H](CCCCN)C(N)=O)NC1=O [compound 192] (HELM PEPTIDE1{[meR].S.D.T.L.[Pen].W.[dE].F.[dK].[am]}|CHEM1{[O=C(c1ccccc1C[*:2])[*:1]]}$PEPTIDE1,CHEM1,1:R1-1:R1|PEPTIDE1,CHEM1,6:R3-1:R2$$$V2.0)	< 0.025
CC(C)C[C@@H]1NC(=O)[C@H]([C@@H](C)O)NC(=O)[C@H](CC(=O)O)NC(=O)[C@H](CO)NC(=O)[C@H](CCCNC(=N)N)N(C)C(=O)c2ccccc2CSC(C)(C)[C@@H](C(=O)N[C@@H](Cc2c[nH]c3ccccc23)C(=O)N[C@H](CCC(=O)O)C(=O)N[C@H](CCC(=O)O)C(=O)N[C@H](CCCCN)C(N)=O)NC1=O [compound 200] (HELM PEPTIDE1{[meR].S.D.T.L.[Pen].W.[dE].[dE].[dK].[am]}|CHEM1{[O=C(c1ccccc1C[*:2])[*:1]]}$PEPTIDE1,CHEM1,1:R1-1:R1|PEPTIDE1,CHEM1,6:R3-1:R2$$$V2.0)	< 0.025
221 (RSDTLCXK; not fully specified; CROSSLINK - N-term 2-Benzyl with a thioether bond between the N-term and the residue at position 6; MOD_RES 1 N-Methyl Arginine; SITE 7 (3S-)-1,2,3,4-tetrahydroisoquinoline-3-carboxylic acid; SITE 8 D-Lys; SITE 8 C-term OH) [compound 221]	0.025 to 0.1
